Test results published in publication PMC10269165 (Antimicrobial Agents and Chemotherapy, 2023).
Read-outs that look alike come from different tables or passages of the source.

Key:
OdPMT = OdPMT (Oesophagostomum dentatum, UniProt A0A0B1TAL6); experiment: biochemical; format: biochemical; details: for Selectivity index (SI) OdPMT: IC50^Cytotoxicity/IC50^Enzyme;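 for Selectivity index (SI) OdPMT: cytotoxicity IC50 measured in HCT-8 cells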
Description: (§1) The chemical compounds were obtained from the National Cancer Institute/Developmental Therapeutics Program Open Chemical Repository. […] Compounds were individually reconstituted in molecular biology grade dimethyl sulfoxide (DMSO) from Sigma-Aldrich to a stock concentration of 10 mM and stored at −20°C until use. Initial screening was conducted using recombinant HcPMT1 protein as enzyme in the methyltransferase assay, with test compounds at a final concentration of 40 μM. […] To the positive reaction mixture, instead of test compound, an equivalent volume of DMSO was added. In the negative-control reaction mixture, instead of HcPMT1 and test compound, equivalent volumes of 1× transferase buffer and DMSO, respectively, were added. Detection buffer (100 μL) containing fluorescence substrate was added into each reaction mixture. The reactions were prepared in triplicate wells in 96-well plates. The plates were covered in aluminum foil and incubated at room temperature with agitation for 30 min, followed by reading the fluorescence at 380EX/520EM. The mean percent inhibition (MPI) of the test compound on enzymatic activity was calculated using the following formula: MPI = ΔRFUpositive control − ΔRFUcompounds/ΔRFUpositive control × 100, where the positive control is a reaction without compound but with recombinant PMT protein and a volume of DMSO equivalent to that of compound used in test reactions; the negative control is the reaction without protein and compounds, but with volumes of dialysis buffer and DMSO equivalent to protein and compound added in the test reaction mixtures, respectively; ΔRFUpositive control represents the absolute relative fluorescence units (RFU) for the positive control, which equals RFUpositive control – RFUnegative control; and ΔRFUcompounds represents the absolute RFU value for the sample with the compounds, which equals RFUcompounds – RFUnegative control.
(§2) The enzymatic assay was set up as described above, with the respective PMT protein as enzyme.

TcPMT = TcPMT (Toxocara canis, UniProt A0A0B2VTW9); experiment: biochemical; format: biochemical; details: for Selectivity index (SI) TcPMT: IC50^Cytotoxicity/IC50^Enzyme
Description: as §1, §2

AcPMT1 = AcPMT1 (Ancylostoma duodenale, UniProt A0A0C2DEB6); experiment: biochemical; format: biochemical; details: for Selectivity index (SI) AcPMT1: IC50^Cytotoxicity/IC50^Enzyme
Description: as §1, §2

DvPMT1 = DvPMT1 (Dictyocaulus viviparus, UniProt A0A0D8Y714); experiment: biochemical; format: biochemical; details: for Selectivity index (SI) DvPMT1: IC50^Cytotoxicity/IC50^Enzyme
Description: as §1, §2

HcPMT1 = HcPMT1 (Haemonchus contortus, UniProt U5HK46); experiment: biochemical; format: biochemical; details: for Selectivity index (SI) HcPMT1: IC50^Cytotoxicity/IC50^Enzyme
Description: as §1, §2

[1] = test system: AsPMT-complemented pem1Δ/pem2Δ S. cerevisiae; experiment: Growth inhibition of complemented yeast; format: cell-based, Saccharomyces cerevisiae; details: medium with ethanolamine, no choline, day 3, read-out: Mean growth inhibition EC50 ± SEM on complemented yeast, AsPMT
Description: (§3) To determine the effect of PMT inhibitors on the growth of PMT- and LacZ-complemented pem1Δpem2Δ S. cerevisiae, the yeast cells were first starved of choline as described above, and the cells were diluted to an OD600 of ~0.6. The PMT-complemented yeast cells were cultured in SG medium (3.4g/L yeast nitrogen base without amino acids, 2% galactose, 30 mg/L histidine, 100 mg/L leucine, 100 mg/L adenine, and 50 mg/L tryptophan) supplemented with 1 mM ethanolamine hydrochloride, while the LacZ-complemented yeast cells were cultured in SG medium supplemented with 1 mM choline chloride. Compounds that depicted cross-inhibitory activity against PMT proteins in vitro were added at various concentrations to the cultures. As a negative control, DMSO (at a final concentration not exceeding 2% [vol/vol]) was added to yeast cultures designated control cultures. The cultures were incubated at 30°C with shaking at 275 rpm for 4 days. On a daily basis during the course of culture, 200-μL portions of culture aliquots were taken, and their OD600s were measured using a microplate reader. In preliminary work, we had observed that the growth of PMT- and LacZ-complemented pem1Δpem2Δ S. cerevisiae plateaued at 3 to 4 days of culture. Therefore, to determine the inhibitory effect of nematode PMT inhibitors on the growth of PMT- and LacZ-complemented pem1Δpem2Δ S. cerevisiae, measurements taken on day 3 were used. The results were presented as percentage of growth rate using the following formula: PGR = growth rate (plus inhibitor)/growth rate (minus inhibitor) × 100 where the percent growth rate (PGR) is the growth rate of inhibitor-treated PMT- or LacZ- complemented Pem1Δpem2Δ S. cerevisiae, considering the growth rate of untreated PMT- or LacZ- complemented Pem1Δpem2Δ S. cerevisiae is 100%; the growth rate = ΔA600^Day 3/ΔA600^Day 0; ΔA600^Day 0 is the absolute value of A600 of PMT- or LacZ- complemented pem1Δ/pem2Δ S. cerevisiae at day 0, which equals the A600 of the culture minus the A600 of the growth medium only; ΔA600^Day 3 is the absolute value of the A600 of PMT- or LacZ complemented pem1Δ/pem2Δ S. cerevisiae at day 3, which equals the A600 of the culture at day 3 minus the A600 of growth medium only; the growth rate (plus inhibitor) is the growth rate of PMT- or -LacZ complemented pem1Δpem2Δ S. cerevisiae in the presence of test compound; and the growth rate (minus inhibitor) is the growth rate of the PMT- or LacZ complemented pem1Δ/pem2Δ S. cerevisiae in the absence of test compound, but with a volume of DMSO equal to that of compound added in the treated culture. The dose-response curves were generated with GraphPad Prism software and IC50 concentrations of the compounds in PMT- and LacZ-complemented yeast cells derived.

[2] = test system: HcPMT1+2-complemented pem1Δ/pem2Δ S. cerevisiae; experiment: Growth inhibition of complemented yeast; format: cell-based, Saccharomyces cerevisiae; details: read-out: Mean growth inhibition EC50 ± SEM on complemented yeast, HcPMT1+2
Description: as §3

[3] = test system: AcPMT1+2-complemented pem1Δ/pem2Δ S. cerevisiae; experiment: Growth inhibition of complemented yeast; format: cell-based, Saccharomyces cerevisiae; details: read-out: Mean growth inhibition EC50 ± SEM on complemented yeast, AcPMT1+2
Description: as §3

[4] = test system: TcPMT-complemented pem1Δ/pem2Δ S. cerevisiae; experiment: Growth inhibition of complemented yeast; format: cell-based, Saccharomyces cerevisiae; details: read-out: Mean growth inhibition EC50 ± SEM on complemented yeast, TcPMT
Description: as §3

[5] = test system: DvPMT1+2-complemented pem1Δ/pem2Δ S. cerevisiae; experiment: Growth inhibition of complemented yeast; format: cell-based, Saccharomyces cerevisiae; details: read-out: Mean growth inhibition EC50 ± SEM on complemented yeast, DvPMT1+2
Description: as §3

AsPMT = AsPMT (Ascaris suum, UniProt F1L4B9); format: biochemical; details: for Selectivity index (SI) AsPMT: IC50^Cytotoxicity/IC50^Enzyme; for IC50: read-out: Mean IC50 ± SEM, Enzyme AsPMT;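 for Selectivity index (SI) AsPMT: cytotoxicity IC50 measured in HCT-8 cells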
Description: as §1, §2

[6] = read-out: Mean IC50 ± SEM, Enzyme OdPMT
[7] = read-out: Mean IC50 ± SEM, Enzyme TcPMT
[8] = read-out: Mean IC50 ± SEM, Enzyme AcPMT1
[9] = read-out: Mean IC50 ± SEM, Enzyme DvPMT1
[10] = read-out: Mean IC50 ± SEM, Enzyme HcPMT1
[11] = medium with ethanolamine, no choline, day 3
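Throughout, for Selectivity index (SI) AcPMT1: cytotoxicity IC50 measured in HCT-8 cells.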
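Throughout, for Selectivity index (SI) DvPMT1: cytotoxicity IC50 measured in HCT-8 cells.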
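Throughout, for Selectivity index (SI) HcPMT1: cytotoxicity IC50 measured in HCT-8 cells.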
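Throughout, for Selectivity index (SI) TcPMT: cytotoxicity IC50 measured in HCT-8 cells.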

Sequence of OdPMT (A0A0B1TAL6 entry or part of it): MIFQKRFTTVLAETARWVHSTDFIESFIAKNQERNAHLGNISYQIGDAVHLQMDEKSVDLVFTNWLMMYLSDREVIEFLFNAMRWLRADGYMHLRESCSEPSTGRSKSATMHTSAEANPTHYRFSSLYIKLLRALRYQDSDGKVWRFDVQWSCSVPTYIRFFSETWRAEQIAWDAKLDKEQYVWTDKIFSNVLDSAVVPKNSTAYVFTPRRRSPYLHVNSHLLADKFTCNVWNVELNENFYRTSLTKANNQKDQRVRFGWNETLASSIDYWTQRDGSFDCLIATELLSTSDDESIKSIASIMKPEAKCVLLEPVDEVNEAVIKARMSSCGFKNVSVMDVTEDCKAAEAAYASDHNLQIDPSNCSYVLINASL
Sequence of DvPMT1 (A0A0D8Y714 entry or part of it): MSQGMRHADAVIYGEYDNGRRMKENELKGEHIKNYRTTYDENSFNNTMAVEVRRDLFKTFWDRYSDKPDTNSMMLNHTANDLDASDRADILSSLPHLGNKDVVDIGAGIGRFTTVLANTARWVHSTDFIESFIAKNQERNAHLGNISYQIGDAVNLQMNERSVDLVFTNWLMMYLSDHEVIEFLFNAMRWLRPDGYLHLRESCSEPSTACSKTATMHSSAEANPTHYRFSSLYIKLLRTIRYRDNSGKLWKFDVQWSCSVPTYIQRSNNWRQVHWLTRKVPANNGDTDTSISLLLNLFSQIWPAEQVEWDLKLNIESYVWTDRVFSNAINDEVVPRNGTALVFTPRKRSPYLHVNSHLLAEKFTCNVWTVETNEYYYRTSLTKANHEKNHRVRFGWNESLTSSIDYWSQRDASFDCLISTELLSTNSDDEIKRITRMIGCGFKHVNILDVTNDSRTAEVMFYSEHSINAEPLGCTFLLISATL
Sequence of AcPMT1 (A0A0C2DEB6 entry or part of it): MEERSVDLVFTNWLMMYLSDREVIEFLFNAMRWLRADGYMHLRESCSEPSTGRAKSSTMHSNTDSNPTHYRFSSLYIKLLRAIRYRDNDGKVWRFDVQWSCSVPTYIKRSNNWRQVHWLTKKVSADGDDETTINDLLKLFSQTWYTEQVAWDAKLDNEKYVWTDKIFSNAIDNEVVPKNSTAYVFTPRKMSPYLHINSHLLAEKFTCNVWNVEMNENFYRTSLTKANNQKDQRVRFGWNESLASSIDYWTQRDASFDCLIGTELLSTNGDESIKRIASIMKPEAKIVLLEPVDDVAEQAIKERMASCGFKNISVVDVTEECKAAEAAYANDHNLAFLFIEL
Sequence of HcPMT1 (U5HK46 entry or part of it): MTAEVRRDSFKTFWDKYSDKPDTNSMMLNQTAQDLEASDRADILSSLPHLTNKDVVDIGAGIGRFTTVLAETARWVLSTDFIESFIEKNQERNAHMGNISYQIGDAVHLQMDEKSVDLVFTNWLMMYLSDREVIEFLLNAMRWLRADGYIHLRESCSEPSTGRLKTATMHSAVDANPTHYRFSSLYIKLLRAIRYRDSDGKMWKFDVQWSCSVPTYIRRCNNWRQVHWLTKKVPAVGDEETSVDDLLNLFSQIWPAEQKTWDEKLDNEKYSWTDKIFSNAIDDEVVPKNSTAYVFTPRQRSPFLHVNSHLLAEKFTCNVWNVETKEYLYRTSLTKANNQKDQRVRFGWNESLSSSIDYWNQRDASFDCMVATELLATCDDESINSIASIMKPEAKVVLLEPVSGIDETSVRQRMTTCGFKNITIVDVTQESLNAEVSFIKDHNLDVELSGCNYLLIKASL
Sequence of AsPMT (F1L4B9 entry or part of it): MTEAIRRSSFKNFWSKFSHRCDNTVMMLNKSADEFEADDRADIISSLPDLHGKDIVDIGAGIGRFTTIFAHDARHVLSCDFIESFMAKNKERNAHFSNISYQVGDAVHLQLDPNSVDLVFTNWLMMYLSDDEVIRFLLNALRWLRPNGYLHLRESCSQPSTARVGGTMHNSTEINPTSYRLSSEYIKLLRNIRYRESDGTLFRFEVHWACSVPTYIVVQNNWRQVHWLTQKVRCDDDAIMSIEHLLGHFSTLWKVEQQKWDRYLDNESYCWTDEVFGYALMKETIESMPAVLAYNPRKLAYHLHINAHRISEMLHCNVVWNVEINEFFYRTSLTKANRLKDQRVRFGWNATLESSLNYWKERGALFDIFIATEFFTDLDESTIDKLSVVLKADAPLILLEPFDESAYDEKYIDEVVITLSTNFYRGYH
Sequence of TcPMT (A0A0B2VTW9 entry or part of it): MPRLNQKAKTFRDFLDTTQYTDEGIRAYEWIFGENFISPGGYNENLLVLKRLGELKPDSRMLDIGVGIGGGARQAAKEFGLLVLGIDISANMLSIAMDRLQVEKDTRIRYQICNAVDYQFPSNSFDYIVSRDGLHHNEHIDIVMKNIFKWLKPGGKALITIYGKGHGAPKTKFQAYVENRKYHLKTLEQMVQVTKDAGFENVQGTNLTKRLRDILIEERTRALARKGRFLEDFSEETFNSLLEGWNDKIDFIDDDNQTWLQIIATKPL

Row | Compound | Selectivity index (SI) OdPMT (OdPMT) | IC50 (OdPMT; [6]) [µM] | Selectivity index (SI) TcPMT (TcPMT) | IC50 (TcPMT; [7]) [µM] | Selectivity index (SI) AcPMT1 (AcPMT1) | IC50 (AcPMT1; [8]) [µM] | Selectivity index (SI) DvPMT1 (DvPMT1) | IC50 (DvPMT1; [9]) [µM] | Selectivity index (SI) HcPMT1 (HcPMT1) | IC50 (HcPMT1; [10]) [µM] | EC50 [1] [µM] | EC50 [2, 11] [µM] | EC50 [3, 11] [µM] | EC50 [4, 11] [µM] | EC50 [5, 11] [µM] | Selectivity index (SI) AsPMT (AsPMT) | IC50 (AsPMT) [µM] | other results
1 | COc1ccc(-c2c(C)c(C(=O)O)nc(-c3ccc4c(O)c(OC)c5c(c4n3)=NC(C)(C)N=5)c2N)c(O)c1OC [NSC62709] | 9.39 | 31.8 ± 1.8 | 10.83 | 27.6 ± 1.26 | 22.31 | 13.4 ± 1.3 | 10.24 | 29.2 ± 2.13 | 10.86 | 27.5 ± 1.97 | 15.4 ± 2.13 | 3.03 ± 0.26 | 26.9 ± 7.63 | 29.8 ± 7.61 | 25.6 ± 5.07 | 6.75 | 44.3 ± 1.35 | –
2 | COc1cc(C)c2c(c1C=O)Oc1c(c(C)c(O)c3c1C(O)OC3=O)OC2=O (centres unmarked) [NSC87511] | 0.35 | 488 ± 162 | 0.35 | 496 ± 184 | 2.61 | 65.8 ± 9.78 | 0.34 | 504 ± 188 | 1.10 | 157 ± 26 | 25.9 ± 1.24 | 2.08 ± 0.29 | 26.4 ± 3.45 | 58.2 ± 7 | 17.1 ± 1.15 | 0.97 | 177 ± 15.6 | –
3 | CO[C@@]12[C@H](COC(N)=O)C3=C(C(=O)C(C)=C(N)C3=O)N1C[C@H]1[C@@H]2N1C (some centres unmarked) [NSC56410] | 0.90 | – | 2.23 | – | 2.75 | – | 0.10 | – | 3.52 | – | – | – | – | – | – | 3.24 | 58.1 ± 12.9 | IC50 (OdPMT): 210 ± 73.5 µM; IC50 (TcPMT): 84.5 ± 6.53 µM; IC50 (AcPMT1): 68.4 ± 5.39 µM; IC50 (DvPMT1): 1920 µM; IC50 (HcPMT1): 53.5 ± 5.85 µM; EC50 ([1]; Saccharomyces cerevisiae, 72 h): 50.7 ± 3.87 µM; EC50 ([2]; Saccharomyces cerevisiae, 72 h): 1.48 ± 0.21 µM; EC50 ([3]; Saccharomyces cerevisiae, 72 h): 40.3 ± 9.42 µM; EC50 ([4]; Saccharomyces cerevisiae, 72 h): 45.1 ± 3.97 µM; EC50 ([5]; Saccharomyces cerevisiae, 72 h): 45.6 ± 7.61 µM
4 | O=c1c(O)cccc2cc(O)c(O)c(O)c12 [NSC35676, purpurogallin] | 33.80 | 16.8 ± 0.41 | 12.35 | 45.9 ± 2.9 | 49.02 | 11.5 ± 0.94 | 13.44 | 42.1 ± 3.16 | 27.96 | 20.2 ± 1.64 | – | – | – | – | – | 45.59 | 12.4 ± 1.1 | EC50 ([1]; Saccharomyces cerevisiae, 72 h): 15.1 ± 0.7 µM; EC50 ([2]; Saccharomyces cerevisiae, 72 h): 5.45 ± 0.95 µM; EC50 ([3]; Saccharomyces cerevisiae, 72 h): 17.6 ± 3.72 µM; EC50 ([4]; Saccharomyces cerevisiae, 72 h): 22.9 ± 5 µM; EC50 ([5]; Saccharomyces cerevisiae, 72 h): 12.9 ± 1.58 µM
5 | CO[C@@H]1/C=C\O[C@]2(C)Oc3c(C)c(O)c4c(O)c(c(CN(C)C)c(O)c4c3C2=O)NC(=O)/C(C)=C\C=C[C@@H](C)[C@@H](O)[C@H](C)[C@@H](O)[C@H](C)[C@H](OC(C)=O)[C@@H]1C [NSC145612] | 9.11 | 33.2 ± 2.26 | 2.77 | 109 ± 12.6 | 11.05 | 27.4 ± 2.92 | 5.49 | 55.1 ± 4.46 | 10.83 | 27.9 ± 1.57 | 28.9 ± 4.38 | 8.28 ± 0.99 | 29.3 ± 2.54 | 27.2 ± 7.7 | 23 ± 2.15 | 6.67 | 45.3 ± 1.71 | –
6 | CO[C@H]1/C=C/O[C@@]2(C)Oc3c(C)c(O)c4c(O)c(cc(O)c4c3C2=O)NC(=O)/C(C)=C\C=C\[C@H](C)[C@H](O)[C@@H](C)[C@@H](O)[C@@H](C)[C@H](OC(C)=O)[C@@H]1C [NSC133100] | 1.07 | 94.7 ± 5.03 | 1.03 | 99.1 ± 9 | 3.23 | 31.5 ± 2.25 | 1.15 | 88.2 ± 4.14 | 3.67 | 27.8 ± 1.71 | 23.4 ± 1.85 | 18.7 ± 2.07 | 35.1 ± 5.01 | 60.1 ± 5.85 | 35.7 ± 3.67 | 3.00 | 34 ± 2.85 | –
7 | CO[C@@H]1/C=C/O[C@@]2(C)Oc3c(C)c(O)c4c(c3C2=O)C(=N[C@@H]2CC[C@@H](O)O[C@H]2C)C=C(NC(=O)/C(C)=C\C(=O)[C@@H]2C[C@@H]2[C@H](O)[C@@H](C)[C@@H](O)[C@@H](C)[C@H](OC(C)=O)[C@@H]1C)C4=O [NSC177383] | 3.20 | 26.7 ± 2 | 2.07 | 41.3 ± 2.8 | 5.76 | 14.8 ± 2.06 | 1.80 | 47.6 ± 7.41 | 3.93 | 21.7 ± 2.05 | 12.3 ± 1.11 | 6.11 ± 1.84 | 21.9 ± 7.31 | 11.8 ± 1.43 | 15.4 ± 1.91 | 3.47 | 24.6 ± 1.79 | –
